# The source made the active and inactive calls. The rule behind the calls is not given here.
# Key:
# HepG2 [1] = assay: Antiproliferative activity against human HepG2 cells at 10 uM after 24 hrs by crystal violet-staining assay; format: functional
# HepG2 [2] = assay: Antiproliferative activity against human HepG2 cells at 1 uM after 24 hrs by crystal violet-staining assay; format: functional
# HepG2 [3] = assay: Antiproliferative activity against human HepG2 cells at 5 uM after 24 hrs by crystal violet-staining assay; format: functional
# Homo sapiens [4] = species: Homo sapiens; assay: Inhibition of human ChoK activity assessed as inhibition of incorporation of [14C] from methyl[14C]choline into phosphocholine at 50 uM after 20 mins by scintillation counting
# HepG2 [5] = assay: Antiproliferative activity against human HepG2 cells at 50 uM after 24 hrs by crystal violet-staining assay; format: functional
# Homo sapiens [6] = species: Homo sapiens; assay: Inhibition of human ChoK activity assessed as inhibition of incorporation of [14C] from methyl[14C]choline into phosphocholine at 10 uM after 20 mins by scintillation counting
# HepG2 [7] = assay: Cytotoxicity against human HepG2 cells at 50 uM after 24 hrs by crystal violet-staining assay; format: cell-based; details: hepg2, 24 h
# HepG2 [8] = assay: Cytotoxicity against human HepG2 cells at 10 uM after 24 hrs by crystal violet-staining assay; format: cell-based; details: hepg2, 24 h
# [9] = Inhibition of human ChoK activity assessed as inhibition of incorporation of [14C] from methyl[14C]choline into phosphocholine after 20 mins by scintillation counting
Structure (SMILES),inhibition (Homo sapiens [4]),inhibition (Homo sapiens [6]),IC50 [9],Activity (HepG2 [1]),Activity (HepG2 [2]),Activity (HepG2 [3]),Activity (HepG2 [5]),Activity (HepG2 [7]),Activity (HepG2 [8])
Nc1cccc(OCc2ccc(-c3ccc(C[n+]4ccc(N5CCCC5)cc4)cc3)cc2)c1.[Br-],20.8%,inactive,,,40.52%,57.24%,,Toxic,Toxic
CN(C)c1cc[n+](Cc2ccc(CCCCc3ccc(Cn4cnc5c(N)ncnc54)cc3)cc2)cc1.[Br-],89.7%,66.7%,,10.2%,,,45.5%,,
Oc1cccc(NCc2ccc(CCc3ccc(C[n+]4ccc(N5CCCC5)cc4)cc3)cc2)c1.[Br-],13.6%,inactive,,,11.19%,67.39%,,Toxic,Toxic
CN(C)c1cc[n+](Cc2ccc(CCCCc3ccc(COc4cccc(N)c4)cc3)cc2)cc1.[Br-],inactive,inactive,,22.68%,10.14%,18.32%,46.67%,,
Nc1cccc(OCc2ccc(CCCCc3ccc(C[n+]4ccc(N5CCCC5)cc4)cc3)cc2)c1.[Br-],21.6%,inactive,,,57.69%,83.21%,,Toxic,Toxic
CN(C)c1cc[n+](Cc2ccc(CCc3ccc(COc4cccc(N)c4)cc3)cc2)cc1.[Br-],21.9%,inactive,,30.53%,7.42%,6.98%,59.54%,,
Oc1cccc(NCc2ccc(C[n+]3ccc(N4CCCC4)cc3)cc2)c1.[Br-],41.3%,inactive,,9.54%,2.91%,13.43%,8.53%,,
Oc1cccc(NCc2ccc(CCCCc3ccc(C[n+]4ccc(N5CCCC5)cc4)cc3)cc2)c1.[Br-],18%,inactive,,,inactive,48.96%,,Toxic,Toxic
CN(C)c1cc[n+](Cc2ccc(CCc3ccc(CNc4cccc(O)c4)cc3)cc2)cc1.[Br-],39.5%,inactive,,34.1%,5.56%,18.43%,73.4%,,
CN(C)c1cc[n+](Cc2ccc(COc3cccc(N)c3)cc2)cc1.[Br-],37.7%,14.8%,,inactive,inactive,inactive,22.48%,,
CN(C)c1cc[n+](Cc2ccc(CNc3cccc(O)c3)cc2)cc1.[Br-],52.4%,27.5%,,24.38%,7.74%,13.01%,54.51%,,
CN(C)c1cc[n+](Cc2ccc(-c3ccc(CNc4cccc(O)c4)cc3)cc2)cc1.[Br-],66.2%,54.2%,7.89 µM,9.86%,inactive,inactive,24.4%,,

# The next lines start with results.
inhibition (Homo sapiens [4]),inhibition (Homo sapiens [6]),IC50 [9],Structure (SMILES),Activity (HepG2 [1]),Activity (HepG2 [2]),Activity (HepG2 [3]),Activity (HepG2 [5]),Activity (HepG2 [7]),Activity (HepG2 [8])
12.9%,3.8%,,Nc1cccc(OCc2ccc(C[n+]3ccc(N4CCCC4)cc3)cc2)c1,inactive,inactive,inactive,inactive,,
71.4%,62.3%,,CN(C)c1cc[n+](Cc2ccc(-c3ccc(Cn4cnc(N)c5ncnc4-5)cc3)cc2)cc1.[Br-],10%,,,7%,,
79.8%,54.4%,6.37 µM,CN(C)c1cc[n+](Cc2ccc(-c3ccc(COc4cccc(N)c4)cc3)cc2)cc1.[Br-],24.4%,8.5%,16.23%,,Toxic,
inactive,inactive,,Nc1cccc(OCc2ccc(CCc3ccc(C[n+]4ccc(N5CCCC5)cc4)cc3)cc2)c1.[Br-],,55.37%,76.04%,,Toxic,Toxic
28.2%,inactive,,Oc1cccc(NCc2ccc(-c3ccc(C[n+]4ccc(N5CCCC5)cc4)cc3)cc2)c1.[Br-],,48.52%,52.99%,,Toxic,Toxic
12.9%,3.8%,,CN(C)c1cc[n+](Cc2ccc(CCCCc3ccc(CNc4cccc(O)c4)cc3)cc2)cc1.[Br-],30.86%,4.58%,13.09%,71.1%,,

# From ChEMBL document CHEMBL2440082, “New non-symmetrical choline kinase inhibitors” (Bioorg Med Chem, 2013)
